# Results: paper PMC5107951 (Scientific Reports, 2016)
# Columns and labels:
# Assay type in all cases: binding
# α7 nAChR [1] = target: T1, α7 nAChR (Homo sapiens, UniProt P36544); experiment: cell-based
# α7 nAChR [2] = target: T1, α7 nAChR
# α7 nAChR [3] = target: T1, α7 nAChR; remark: listed apart in the source
# T1 sequence (P36544 23-502 limits assumed): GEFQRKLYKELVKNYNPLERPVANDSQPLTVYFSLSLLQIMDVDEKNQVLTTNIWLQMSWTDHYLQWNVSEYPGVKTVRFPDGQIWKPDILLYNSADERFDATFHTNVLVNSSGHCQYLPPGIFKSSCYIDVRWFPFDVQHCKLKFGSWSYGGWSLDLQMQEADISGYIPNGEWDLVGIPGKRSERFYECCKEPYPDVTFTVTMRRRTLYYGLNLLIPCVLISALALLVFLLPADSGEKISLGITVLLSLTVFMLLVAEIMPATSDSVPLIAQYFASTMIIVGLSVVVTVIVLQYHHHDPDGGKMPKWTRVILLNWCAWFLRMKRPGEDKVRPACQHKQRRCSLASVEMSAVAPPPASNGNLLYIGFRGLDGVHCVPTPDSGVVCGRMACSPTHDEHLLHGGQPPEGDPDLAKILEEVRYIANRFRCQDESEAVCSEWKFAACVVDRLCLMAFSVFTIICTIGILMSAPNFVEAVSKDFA
substance,measurement,setting,value
α-cobratoxin,"Hill coefficient, “replaceable” binding at the orthosteric site",α7 nAChR [1],1.0 ± 0.3
same,"radioligand [125I]-PnIA[R9, L10] not displaced",α7 nAChR [1],≈ 25%
same,IC50,"α7 nAChR [1]; read-out: IC50 of [125I]-PnIA[R9, L10] binding inhibition, “replaceable” binding at the orthosteric site",11 ± 3 nM
same,"removal of [125I]-PnIA[R9, L10] from α7 nAChR (in words)",α7 nAChR [2],could not completely remove the radioligand from the target even after a 2-hour incubation
same,"inhibition of [125I]-PnIA[R5, R9, L10, R14] binding (in words)",α7 nAChR [3],failed to achieve a 50% inhibition
